Laboratory results taken from paper PMC7230731 (Marine Drugs, 2020).

What was measured:
Format in all cases: cell-based, human
[1] = test system: Bax/Bcl-2; assay: Bax/Bcl-2 ratio from ELISA; conditions: MCF-7 cells; for Bax/Bcl-2: IC50 concentration, 48 h
Text: Synchronization of the mitochondrial pathway is headed by the Bcl-2 family of proteins. These proteins are classified into two groups: anti-apoptotic proteins exemplified by Bcl-2 protein and the counteracting pro-apoptotic proteins including Bax protein [21]. As induction of the apoptotic machinery is one of the most useful strategies in cancer therapy, we investigated the effect of our compounds to boost the pro-apoptotic protein; Bax and reduce the anti-apoptotic protein; Bcl-2 in an attempt to explore the underlying mechanism for their cytotoxic activity (Table 1). […] Fortunately, both compounds markedly boosted the level of Bax by 8.3- and 6.4-fold, respectively (Table 4, Figure 3).
Effects of treatment of breast cancer MCF-7 cells with bis-indoles 7e and 9a on the expression levels of the pro-apoptotic markers (Bax, caspase-3, and p53) in addition to the anti-apoptotic protein Bcl-2 marker was assessed by the use of ELISA colorimetric kits as per the manufacturer’s instructions, as described earlier.
The levels of the pro-apoptotic markers (Bax, caspase-3 and p53) as well as the anti-apoptotic marker Bcl-2 were determined using ELISA colorimetric kits per the manufacturer’s instructions. Breast cancer MCF-7 cells were cultured as a monolayer in T-25 flasks and were seeded to attain 30% confluency prior to treatment. Cells were […]
At the end of treatment, cells were collected via trypsinization and centrifuged at 10,000 rpm. The pellet was then rinsed with PBS and lysed in RIPA lysis buffer at 4 °C for 45 min, then centrifuged at 14,000 rpm for 20 min to remove the cellular debris. Lysates were then collected and stored at −80 °C for later protein determination using Pierce BCA Protein Assay Kit according to manufacturer’s recommendations.
The cell lysate was diluted 10 times, and 100 μL ([…]) was added to the wells of four separate microtiter plates for the four ELISA kits that were pre-coated with primary antibodies specific to Bax, Bcl-2, caspase-3 and p53 proteins, respectively. A secondary biotin-linked antibody specific to the protein captured by the primary antibody was further added to bind the captured protein, forming a “sandwich” of specific antibodies around the desired protein in the cell lysate. The streptavidin-HRP complex was then used to bind the biotin-linked secondary antibody through its streptavidin portion. The HRP domain reacted with the added TMB substrate to form a colored product that measured at 450 nm by a plate reader ChroMate-4300 after the reaction was terminated via the addition of stop solution. […]

[2] = test system: MDA-MB-231 cells; assay: SRB antiproliferative assay, MDA-MB-231; conditions: for IC50: Homo sapiens, MDA-MB-231, 48 h, MDA-MB-231 triple-negative breast cancer cells, SRB assay, 48 h, mean ± S.D. of three experiments
Method: 1. Anti-proliferative action toward human breast cell lines […]
and non-tumorigenic human breast epithelial cell line (MCF-10A) have been obtained from American Type Culture Collection (ATCC). The cells were maintained in Dulbecco's modified Eagle's medium (DMEM) supplemented with 10% heat inactivated fetal calf serum (GIBCO), penicillin (100 U/ml) and streptomycin (100 µg/ml) at 37 °C in humidified atmosphere containing 5% CO2. […]
grown in a 25 cm2 flask in 5 ml of culture medium.
The anti-proliferative activity of the tested compounds was measured in vitro using the Sulfo-Rhodamine-B stain (SRB) assay. Briefly, Cells were inoculated in 96-well microtiter plate (5X104 cells/ well) for 24 h before treatment with the tested compounds to allow attachment of cell to the wall of the plate. Tested compounds were dissolved in DMSO at 1 mg/ml immediately before use and diluted to the appropriate volume just before addition to the cell culture. Different concentrations of tested compounds, doxorubicin and sorafenib were added to the cells (three wells were prepared for each […]
atmosphere of 5% CO2. After 48 h cells were fixed, washed, and stained for 30 min with 0.4% (w/v) SRB dissolved in 1% acetic acid. Unbound dye was removed by four washes with 1% acetic acid, and attached stain was recovered with Tris-EDTA buffer. Color intensity was measured in an ELISA reader. The relation between percent of surviving fraction and drug concentration is plotted to get the survival curve for each cell line. […]

[3] = test system: MCF-10A cells; assay: SRB cytotoxicity assay, non-tumorigenic MCF-10A; conditions: for Selectivity Index MCF-10A/MCF-7: IC50 MCF-10A / IC50 MCF-7; for IC50: non-tumorigenic human breast epithelial MCF-10A cells, SRB assay
Text: The two examined human breast cancer cell lines (MCF-7 and Breast MDA-MB-231), and non-tumorigenic human breast epithelial cell line (MCF-10A) have been obtained from the American Type Culture Collection (ATCC). Assessment of cytotoxicity for target indole derivatives has been performed following the SRB colorimetric assay procedures, as reported earlier.
1. Anti-proliferative action toward human breast cell lines
The two examined human breast cancer cell lines (MCF-7 and Breast MDA-MB-231), and non-tumorigenic human breast epithelial cell line (MCF-10A) have been obtained from American Type Culture Collection (ATCC). The cells were maintained in Dulbecco's modified Eagle's medium (DMEM) supplemented with 10% heat inactivated fetal calf serum (GIBCO), penicillin (100 U/ml) and streptomycin (100 µg/ml) at 37 °C in humidified atmosphere containing 5% CO2. Cells at a concentration of 0.50 x 106 were grown in a 25 cm2 flask in 5 ml of culture medium.
The anti-proliferative activity of the tested compounds was measured in vitro using the Sulfo-Rhodamine-B stain (SRB) assay. Briefly, Cells were inoculated in 96-well microtiter plate (5X104 cells/ well) for 24 h before treatment with the tested compounds to allow attachment of cell to the wall of the plate. Tested compounds were dissolved in DMSO at 1 mg/ml immediately before use and diluted to the appropriate volume just before addition to the cell culture. Different concentrations of tested compounds, doxorubicin and sorafenib were added to the cells (three wells were prepared for each individual dose). Cells were incubated with the compounds for 48 h at 37°C and in atmosphere of 5% CO2. After 48 h cells were fixed, washed, and stained for 30 min with 0.4% (w/v) SRB dissolved in 1% acetic acid. Unbound dye was removed by four washes with 1% acetic acid, and attached stain was recovered with Tris-EDTA buffer. Color intensity was measured in an ELISA reader. The relation between percent of surviving fraction and drug concentration is plotted to get the survival curve for each cell line. […]

SMILES	Bax/Bcl-2 ratio augmentation vs control [1] [fold]	Bax/Bcl-2 [1]	IC50 [2] [µM]	potency relative to Staurosporine, MDA-MB-231 ([2]; ratio of IC50 values, MDA-MB-231 cells) [times]	Selectivity Index MCF-10A/MCF-7 [3]	IC50 [3] [µM]
O=C(Cc1c[nH]c2ccccc12)NN=C1C(=O)Nc2ccc([N+](=O)[O-])cc21 [Compound 7e, 2-(1H-Indol-3-yl)-N′-(5-nitro-2-oxoindolin-3-ylidene)acetohydrazide]	18.65	153.6	1.32 ± 0.03	7.8	38.7	17.1
C=CCN1C(=O)C(=NNC(=O)Cc2c[nH]c3ccccc23)c2ccccc21 [Compound 9a, N′-(1-Allyl-2-oxoindolin-3-ylidene)-2-(1H-indol-3-yl)acetohydrazide]	11.1	91.2	18.2 ± 0.62	–	18.3	23.5
